According to patent publication US7351857B2, “Methods of using substituted tetralins and indanes” (Janssen Pharmaceutica N.V., priority 2002, dated 2008):

Tests used:
PPARγ = target: T1, PPARγ (Homo sapiens, UniProt P37231); test: aP2 assay for PPAR gamma agonists (bDNA aP2 mRNA in preadipocytes); assay type: cell-based; settings: unbracketed values; PPARγ standard FI = 70.3
T1 construct: Following the challenge of the preadipocytes, cells may be lysed with lysis buffer; endogenous in cells; host or cells: preadipocytes
T1 sequence (P37231 1-505): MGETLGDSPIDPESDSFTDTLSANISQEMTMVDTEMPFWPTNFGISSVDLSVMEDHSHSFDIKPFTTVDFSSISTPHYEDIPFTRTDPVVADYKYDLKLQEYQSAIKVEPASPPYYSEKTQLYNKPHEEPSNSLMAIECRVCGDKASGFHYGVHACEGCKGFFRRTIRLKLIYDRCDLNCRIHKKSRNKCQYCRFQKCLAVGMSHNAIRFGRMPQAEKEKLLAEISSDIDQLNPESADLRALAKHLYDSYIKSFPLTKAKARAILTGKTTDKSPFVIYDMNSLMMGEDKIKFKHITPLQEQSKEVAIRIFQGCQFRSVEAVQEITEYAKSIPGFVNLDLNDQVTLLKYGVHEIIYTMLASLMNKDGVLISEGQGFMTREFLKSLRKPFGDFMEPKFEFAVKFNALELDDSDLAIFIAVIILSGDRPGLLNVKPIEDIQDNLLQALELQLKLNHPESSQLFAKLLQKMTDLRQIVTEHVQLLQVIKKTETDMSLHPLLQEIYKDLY
Protocol: The procedure is described in detail in Burris et al., Molecular Endocrinology, 1999, 13:410, which is hereby incorporated by reference in its entirety, and aP2 assay results of agonist intrinsic activity may be presented as fold increase over vehicle in induction of aP2 mRNA production.
Twenty-four hours after the initial seeding of the 96-well plates by hand (around 20,000/well), the differentiation assay may be initiated. Medium may be removed and replaced with 150 μl of differentiation medium containing vehicle (DMSO) or test compounds. Cells may be returned to incubator for 24 hours culture. At the termination of the challenge, medium may be removed and 100 ul of lysis buffer may be added to initiate the bDNA aP2 mRNA assay. The branched DNA assay may be performed according to the manufacturer's protocol (Bayer Diagnostics; Emeryville, Calif.). Result may be expressed as the fold increase of aP2 mRNA production activated over vehicle controls. EC50's and Emax may be determined by non-linear regression with a sigmoidal fit curve.
Following the challenge of the preadipocytes, cells may be lysed with lysis buffer (Bayer Diagnostics) containing the aP2 oligonucleotides. After a 15 minute incubation at 53° C. or 30 minutes at 37° C. incubator, 70 ul of the lysis buffer from each well may be added to a corresponding capture well (preincubated with 70 ul of blocking buffer (Bayer Diagnostics)). The capture plate may be incubated overnight at 53° C. in a plate incubator (Bayer Diagnostics). After this incubation, the bDNA and labeled probes may be annealed as directed by the manufacturer. Following a 30-minute incubation with the luminescent alkaline phosphatase substrate, dioxitane, the luminescence may be quantitated in a Dynex MLX microtiter plate luminometer. Oligonucleotide probes designed to anneal to the aP2 mRNA and function in the bDNA mRNA detection system are designed with ProbeDesigner software (Bayer Diagnostics). This software package analyzes a target sequence of interest with a series of algorithms in order to determine which regions of the sequence can perform as locations for capture, label, or spacer probe annealing. The sequences of the oligonucleotides are as follows: […]

PPARδ = target: T2, PPARδ (Homo sapiens, UniProt Q03181); test: Transfection assay for PPARδ receptors (PPAR-Gal4 / Gal4-luciferase reporter in HEK293 cells); assay type: cell-based; settings: for PPARδ FI (fold induction): unbracketed values, PPARδ standard FI = 36.1
T2 sequence (Q03181 171-441 limits assumed): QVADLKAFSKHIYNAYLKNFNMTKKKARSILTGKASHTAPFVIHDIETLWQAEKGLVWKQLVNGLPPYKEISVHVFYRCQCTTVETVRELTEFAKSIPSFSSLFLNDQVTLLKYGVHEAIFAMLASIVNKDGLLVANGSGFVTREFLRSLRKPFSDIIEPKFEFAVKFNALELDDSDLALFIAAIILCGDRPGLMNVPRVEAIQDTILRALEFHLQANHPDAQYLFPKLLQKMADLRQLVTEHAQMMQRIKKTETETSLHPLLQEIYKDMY
Protocol: HEK293 cells were grown in DMEM/F-12 Media supplemented with 10% FBS and glutamine (GIBCOBRL). The cells were co-transfected with DNA for PPAR-Gal4 receptor and Gal4-Luciferase Reporter using the DMRIE-C Reagent. On the following day, the DNA-containing medium were replaced with 5% Charcoal treated FBS growth medium. After six hours, cells were seeded in 96 well plate and incubated at 37° C. in CO2 incubator overnight. Cells were challenged by test compounds and incubated for 24 hours at 37° C. in 5% CO2 incubator. Luciferase activity was assayed using the Steady-Glo Luciferase Assay Kit from Promega. DMRIE-C Reagent was purchased from GIBCO Cat. No. 10459-014. OPTI-MEM I Reduced Serum Medium was purchased from GIBCO Cat. No. 31985. Steady-Glo Luciferase Assay Kit was obtained from Promega Part# E254B.

Row | PPARγ FI (fold induction) (PPARγ) | PPARδ FI (fold induction) (PPARδ) | Structure (SMILES) | other results
1 | 3.7 |  | CCN(C(=O)Nc1ccc(SC(F)(F)F)cc1)C1Cc2ccc(SC(C)(C)C(=O)O)cc2C1 (centres unmarked) [Example 4, 2-{2-[1-Ethyl-3-(4-trifluoromethylsulfanylphenyl)ureido]indan-5-ylsulfanyl}-2-methylpropionic acid] | 
2 |  | 0.8 | CCN(C(=O)Nc1ccc(N(C)C)cc1)C1Cc2ccc(SC(C)(C)C(=O)O)cc2C1 (centres unmarked) [Example 7, 2-{2-[3-(4-Dimethylaminophenyl)-1-ethylureido]indan-5-ylsulfanyl}-2-methylpropionic acid] | 
3 | 5.1 |  | CCCCCN(C(=O)Nc1ccc(C(C)C)cc1)C1Cc2ccc(SC(C)(C)C(=O)O)cc2C1 (centres unmarked) [Example 10, 2-{2-[3-(4-Isopropylphenyl)-1-(pentyl)ureido]indan-5-ylsulfanyl}-2-methylpropionic acid] | 
4 | 6.1 |  | CCCCCN(C(=O)Nc1ccc(C(C)(C)C)cc1)C1Cc2ccc(SC(C)(C)C(=O)O)cc2C1 (centres unmarked) [Example 11, 2-{2-[3-(4-tert-butylphenyl)-1-(pentyl)ureido]indan-5-ylsulfanyl}-2-methylpropionic acid] | 
5 | 11 |  | CCCCCN(C(=O)Nc1ccc(-c2ccccc2)cc1)C1Cc2ccc(SC(C)(C)C(=O)O)cc2C1 (centres unmarked) [Example 12, 2-[2-(3-Biphenyl-4-yl-1-pentylureido)indan-5-ylsulfanyl]-2-methylpropionic acid] | 
6 | 1.2 |  | CCCCCCN(C(=O)Nc1ccc(C(C)C)cc1)C1Cc2ccc(SC(C)(C)C(=O)O)cc2C1 (centres unmarked) [Example 13, 2-{2-[3-(4-Isopropylphenyl)-1-(hexyl)ureido]indan-5-ylsulfanyl}-2-methylpropionic acid] | 
7 |  | 1.2 | CCCCCCN(C(=O)Nc1ccc(SC(F)(F)F)cc1)C1Cc2ccc(SC(C)(C)C(=O)O)cc2C1 (centres unmarked) [Example 15, 2-Methyl-2-{2-[1-hexyl-3-(4-trifluoromethylsulfanylphenyl)ureido]indan-5-ylsulfanyl}propionic acid] | 
8 | 0.37 |  | CCCN(C(=O)Nc1ccc(OC(F)(F)F)cc1)C1Cc2ccc(SC(C)(C)C(=O)O)cc2C1 (centres unmarked) [Example 16, 2-Methyl-2-{2-[1-propyl-3-(4-trifluoromethoxyphenyl)ureido]indan-5-ylsulfanyl}propionic acid] | 
9 | 0.43 |  | CCCCN(C(=O)Nc1ccc(SC(F)(F)F)cc1)C1Cc2ccc(SC(C)(C)C(=O)O)cc2C1 (centres unmarked) [Example 17, 2-Methyl-2-{2-[1-butyl-3-(4-trifluoromethylsulfanylphenyl)ureido]indan-5-ylsulfanyl}propionic acid] | 
10 | 0.31 |  | CC(C)(Sc1ccc2c(c1)CC(NC(=O)Nc1ccc(OC(F)(F)F)cc1)C2)C(=O)O (centres unmarked) [Example 18, 2-Methyl-2-{2-[3-(4-trifluoromethoxyphenyl)ureido]indan-5-ylsulfanyl}propionic acid] | 
11 |  | 1.4 | C=CCCCN(C(=O)Nc1ccc(OC(F)(F)F)cc1)C1Cc2ccc(SC(C)(C)C(=O)O)cc2C1 (centres unmarked) [Example 19, 2-Methy-2-{2-[1-pent-4-enyl-3-(4-trifluoromethoxyphenyl)ureido]indan-5-ylsulfanyl}propionic acid] | 
12 | 0.44 |  | CC(C)CCN(C(=O)Nc1ccc(OC(F)(F)F)cc1)C1Cc2ccc(SC(C)(C)C(=O)O)cc2C1 (centres unmarked) [Example 20, 2-Methyl-2-{2-[1-(3-methylbutyl)-3-(4-trifluoromethoxyphenyl)ureido]indan-5-ylsulfanyl}-2-methylpropionic acid] | 
13 | 0.05 |  | CC(C)CCN(C(=O)Nc1ccc(C(C)C)cc1)C1Cc2ccc(SC(C)(C)C(=O)O)cc2C1 (centres unmarked) [Example 21, 2-{2-[3-(4-Isopropylphenyl)-1-(3-methylbutyl)ureido]indan-5-ylsulfanyl}-2-methylpropionic acid] | 
14 |  | 4.5 | CCN(C(=O)Nc1ccc(OC(F)(F)F)c(Br)c1)C1Cc2ccc(SC(C)(C)C(=O)O)cc2C1 (centres unmarked) [Example 25, 2-{2-[3-(3-Bromo-4-trifluoromethoxyphenyl)-1-ethylureido]indan-5-ylsulfanyl}-2-methylpropionic acid] | 
15 |  | 2.1 | CCN(C(=O)Nc1cccc(OC(F)(F)F)c1)C1Cc2ccc(SC(C)(C)C(=O)O)cc2C1 (centres unmarked) [Example 26, 2-{2-[1-Ethyl-3-(3-trifluoromethoxyphenyl)ureido]indan-5-ylsulfanyl}-2-methylpropionic acid] | 
16 |  | 8.2 | CC(C)(Sc1ccc2c(c1)CC(N(CCCC1CCCC1)C(=O)Nc1ccc(OC(F)(F)F)cc1)C2)C(=O)O (centres unmarked) [Example 28, 2-{2-[1-(3-Cyclopentylpropyl)-3-(4-trifluoromethoxyphenyl)ureido]indan-5-ylsulfanyl}-2-methylpropionic acid] | 
17 |  | 1.5 | CCCN(C(=O)Nc1ccc(OC)cc1)C1Cc2ccc(SC(C)(C)C(=O)O)cc2C1 (centres unmarked) [Example 32, 2-{2-[3-(4-Methoxyphenyl)-1-propylureido]indan-5-ylsulfanyl}-2-methylpropionic acid] | 
18 |  | 0.8 | CCCN(C(=O)Nc1cc(C)cc(C)c1)C1Cc2ccc(SC(C)(C)C(=O)O)cc2C1 (centres unmarked) [Example 33, 2-{2-[3-(3,5-Dimethylphenyl)-1-propylureido]indan-5-ylsulfanyl}-2-methylpropionic acid] | 
19 |  | 5.6 | CCCN(C(=O)Nc1ccc(C(F)(F)F)cc1)C1Cc2ccc(SC(C)(C)C(=O)O)cc2C1 (centres unmarked) [Example 35, 2-Methyl-2-{2-[1-propyl-3-(4-trifluoromethylphenyl)ureido]indan-5-ylsulfanyl}-propionic acid] | 
20 |  | 1.9 | CC(C)(Sc1ccc2c(c1)CC(N(CCCC1CCCC1)C(=O)Nc1ccccc1)C2)C(=O)O (centres unmarked) [Example 37, 2-{2-[1-(3-Cyclopentylpropyl)-3-phenylureido]indan-5-ylsulfanyl}-2-methylpropionic acid] | 
21 |  | 9.3 | CCCCCN(C(=O)Nc1ccc2ccccc2c1)C1Cc2ccc(SC(C)(C)C(=O)O)cc2C1 (centres unmarked) [Example 39, 2-Methyl-2-[2-(3-naphthalen-2-yl-1-pentylureido)indan-5-ylsulfanyl]propionic acid] | 
22 |  | 6.0 | CCCN(C(=O)Nc1ccc(OC(F)(F)F)cc1)C1CCc2ccc(SC(C)(C)C(=O)O)cc2C1 (centres unmarked) [Example 46, 2-Methyl-2-{7-[1-propyl-3-(4-trifluoromethoxyphenyl)ureido}-5,6,7,8-tetrahydronaphthalen-2-ylsulfanyl}propionic acid] | 
23 |  |  | CCN(C(=O)Nc1ccc(C(C)(C)C)cc1)C1CCc2cc(SC(C)(C)C(=O)O)c(OC)cc2C1 (centres unmarked) [Example 49, 2-{6-[3-(4-tert-Butylphenyl)1-ethylureido]-3-methoxy-5,6,7,8-tetrahydronaphthalen-2-ylsulfanyl}-2-methyl propionic acid] | EC50 (PPARδ; bracketed values): > 3 µM
